Columns and labels:
hERG channel = target: T1, hERG channel (Homo sapiens, UniProt Q12809); assay: hERG assay (QPatch automated patch clamp, CHO cells); format: cell-based; conditions: CHO cells expressing hERG, whole-cell patch clamp, 0.003 μM to 10 μM
T1 construct: expressed in transfected cells
How it was run: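 Whole-cell QPatch recordings at room temperature on CHO cells stably expressing hERG, "+40/−40" protocol from −90 mV holding, 0.1 Hz. Eight cumulative concentrations (0.003–10 μM) on one cell after 0.1% DMSO vehicle; tail-current inhibition versus vehicle fitted to four-parameter logistic, Hill slopes 0.5–2.0 accepted; mean of N≥3 cells.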

[1] = Rat PK profile (bioavailability, clearance, half-life); format: in vivo; conditions: male, Sprague Dawley, plasma, i.v. dose 1 mg/kg
Method: Male Sprague Dawley Rats 300-350 g (Charles River, UK) were group housed, n=3, under a 12 h light/dark cycle with food and water available ad libitum. At 17:00 on the day prior to dosing all food was removed. On the day of dosing animals were weighed, tail marked and dosed via oral gavage with compound at 3 mg/kg in a volume of 5 mL/kg. Animals were culled at 30 min, 1 h and 4 h post dose via intra-peritoneal administration of pentobarbital. Post mortem blood was withdrawn via cardiac puncture, and briefly stored in K2 EDTA blood tubes on ice before being spun at 14,000 g for 4 min at 4° C. Plasma was withdrawn into a 96 well plate, placed on dry ice and stored at −80° C. Brains were quickly dissected and placed on dry ice before storage at −80° C. Bioanalysis of plasma and brain samples is performed as detailed below. Methods were prepared with guidance from industry standard documents.^i,ii
A 10 mM DMSO stock is used to prepare spiking solutions of test compound in the range of 10-100,000 ng/mL in diluent (MeCN:water, 1;1). Calibration lines are prepared in control male Sprague-Dawley Rat plasma at known concentrations in the range of 1-10000 ng/mL by spiking 2.5 μL of calibration spiking solution into 25 μL control plasma. Experimental samples are thawed to RT and 25 μL aliquots are extracted alongside the calibration lines using protein precipitation (agitation for at least 5 min at RT with 400 μL of MeCN containing 25 ng/mL tolbutamide as an internal standard). Protein precipitates are separated from the extracted test compound by centrifugation at 4000 rpm for 5 min, 4° C. The resulting supernatants are diluted in a ratio of 1:2 with a relevant diluent (e.g. 0.1% formic acid in water or 1:1 MeOH:water). Samples are analysed by UPLC-MS/MS on either an API6500 QTrap or Waters 30 TQS mass spectrometer using previously optimised analytical MRM (multiple reaction monitoring) methods, specific to the test compound. The concentration of test compound in isolated samples is determined following analysis of the samples against the two replicates of the calibration line, injected before and after the sample set with an appropriate regression and weighting used. Only samples within 20% of the expected test concentration are included in the calibration line and any samples that fall outside of the limits of the calibration line will be deemed to be less than or above the limit of quantification (LLoQ/ALoQ).
Pharmacokinetic parameters such as bioavailability (% F), clearance (CL), half-life (T½) and volume of distribution are calculated by non-compartmental analysis using Phoenix Winnonlin 64 software (build 8.0). The bioavailability was calculated from p.o. dosed rats, whereas the clearance and half-life were calculated from i.v. dosed rats. Briefly, in vivo plasma concentrations, timepoints and dose values are imported into the software in a compatible format. Plasma concentration for each animal is plotted against time, and the elimination phase identified and selected. The area under the curve for each plot is calculated using a linear trapezoidal linear interpolation from which pharmacokinetic parameters can subsequently be determined. […] Compounds of the invention have much improved clearance (CL) and half-life (T½) compared to the reference examples.

T1 sequence (Q12809 whole entry): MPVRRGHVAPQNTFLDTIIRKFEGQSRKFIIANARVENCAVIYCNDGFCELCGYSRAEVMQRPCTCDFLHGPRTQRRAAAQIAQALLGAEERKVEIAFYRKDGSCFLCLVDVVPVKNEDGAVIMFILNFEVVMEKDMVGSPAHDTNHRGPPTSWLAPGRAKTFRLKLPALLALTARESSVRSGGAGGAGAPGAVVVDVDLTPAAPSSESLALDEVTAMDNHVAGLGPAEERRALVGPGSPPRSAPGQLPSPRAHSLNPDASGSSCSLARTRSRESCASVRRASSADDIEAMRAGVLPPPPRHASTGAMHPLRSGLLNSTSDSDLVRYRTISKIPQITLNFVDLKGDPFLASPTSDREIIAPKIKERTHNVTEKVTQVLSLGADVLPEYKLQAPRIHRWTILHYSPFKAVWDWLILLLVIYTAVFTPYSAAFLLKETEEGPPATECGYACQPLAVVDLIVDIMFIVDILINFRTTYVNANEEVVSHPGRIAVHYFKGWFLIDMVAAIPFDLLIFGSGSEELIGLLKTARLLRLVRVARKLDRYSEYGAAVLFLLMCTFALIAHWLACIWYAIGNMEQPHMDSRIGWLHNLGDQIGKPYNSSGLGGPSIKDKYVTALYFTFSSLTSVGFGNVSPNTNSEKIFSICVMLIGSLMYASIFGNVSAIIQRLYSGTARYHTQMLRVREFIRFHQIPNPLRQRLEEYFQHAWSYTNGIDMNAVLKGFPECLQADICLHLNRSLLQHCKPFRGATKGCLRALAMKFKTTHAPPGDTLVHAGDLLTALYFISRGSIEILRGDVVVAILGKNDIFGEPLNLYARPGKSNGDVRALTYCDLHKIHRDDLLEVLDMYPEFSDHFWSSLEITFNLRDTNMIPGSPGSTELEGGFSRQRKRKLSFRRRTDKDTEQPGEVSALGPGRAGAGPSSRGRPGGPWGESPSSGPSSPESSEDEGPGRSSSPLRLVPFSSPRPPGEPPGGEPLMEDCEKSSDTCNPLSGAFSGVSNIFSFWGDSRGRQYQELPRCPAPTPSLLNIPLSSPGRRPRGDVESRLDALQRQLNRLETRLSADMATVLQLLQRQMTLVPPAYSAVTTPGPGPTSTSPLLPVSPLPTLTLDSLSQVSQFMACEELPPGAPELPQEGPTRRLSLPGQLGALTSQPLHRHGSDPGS

O=C(Nc1ccc(OC(F)(F)Cl)cc1)c1ccc(=O)n(-c2ccccc2)c1 [Example 56, N-[4-[Chloro(difluoro)methoxy]phenyl]-6-oxo-1-phenyl-pyridine-3-carboxamide]
IC50 (hERG channel): > 10 µM
clearance ([1]; iv): 1.9 mL/min/kg
half-life ([1]; iv, read-out: T½ (converted)): 20 h
bioavailability ([1]; po, p.o. dose 3 mg/kg): 97%
